Key:
Experiment in all cases: relative viability (nuclei count vs DMSO), 5 days (fraction); higher = more cells survive
[1] = system: NCI-H2087
Outline: (§1)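 Lung cancer cell lines in 1536-well plates got either a single drug or a fixed anchor-drug dose together with five library-drug doses (not always all listed) in √10 steps, by pin tool, on the day after seeding. Nuclei were counted after 5 days, and relative viability is the treated-to-vehicle ratio of nuclei counts. Values are medians of duplicate plates.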

[2] = system: BEN
Outline: as §1

[3] = system: HCC-44
Outline: as §1

[4] = system: NCI-H596
Outline: as §1

[5] = system: LCLC-103H
Outline: as §1

[6] = system: NCI-H1993
Outline: as §1

[7] = system: HARA
Outline: as §1

[8] = system: EMC-BAC-2
Outline: as §1

[9] = system: NCI-H2126
Outline: as §1

[10] = system: LOU-NH91
Outline: as §1

[11] = system: NCI-H647
Outline: as §1

[12] = system: NCI-H23
Outline: as §1

[13] = system: 201T
Outline: as §1

[14] = system: NCI-H1395
Outline: as §1

[15] = system: NCI-H3122
Outline: as §1

[16] = system: NCI-H441
Outline: as §1

[17] = system: NCI-H727
Outline: as §1

[18] = system: NCI-H650
Outline: as §1

[19] = system: NCI-H522
Outline: as §1

[20] = system: NCI-H2347
Outline: as §1

[21] = system: NCI-H838
Outline: as §1

[22] = system: NCI-H2023
Outline: as §1

O=c1cc(N2CCOCC2)oc2c(-c3cccc4c3sc3ccccc34)cccc12 + O=C(CCCCCCC(=O)Nc1ccccc1)NO [Vorinostat] (partner 1 µM) was tested, and the relative viability ([1]; first compound 0.01 µM) was 0.474, the relative viability ([1]; first compound 0.03162 µM) was 0.637 and the relative viability ([1]; first compound 0.1 µM) was 0.8. For the same compound, the relative viability ([1]; first compound 0.3162 µM) was 0.64, the relative viability ([1]; first compound 1 µM) was 0.745 and the relative viability ([2]; first compound 0.01 µM) was 0.56. The relative viability ([2]; first compound 0.03162 µM) was 0.627, the relative viability ([2]; first compound 0.1 µM) was 0.49 and the relative viability ([2]; first compound 0.3162 µM) was 0.583. For the same compound, the relative viability ([2]; first compound 1 µM) was 0.655, the relative viability ([3]; first compound 0.01 µM) was 1.05 and the relative viability ([3]; first compound 0.03162 µM) was 1.05. The relative viability ([3]; first compound 0.1 µM) was 1.06, the relative viability ([3]; first compound 0.3162 µM) was 1.03 and the relative viability ([3]; first compound 1 µM) was 1.07. It also gave a relative viability ([4]; first compound 0.01 µM) of 0.564, a relative viability ([4]; first compound 0.03162 µM) of 0.586 and a relative viability ([4]; first compound 0.1 µM) of 0.581. For the same compound, the relative viability ([4]; first compound 0.3162 µM) was 0.626, the relative viability ([4]; first compound 1 µM) was 0.573 and the relative viability ([5]; first compound 0.01 µM) was 0.739. It also gave a relative viability ([5]; first compound 0.03162 µM) of 0.824, a relative viability ([5]; first compound 0.1 µM) of 0.826 and a relative viability ([5]; first compound 0.3162 µM) of 0.826. It also gave a relative viability ([5]; first compound 1 µM) of 0.857, a relative viability ([6]; first compound 0.01 µM) of 1.21 and a relative viability ([6]; first compound 0.03162 µM) of 0.769. The relative viability ([6]; first compound 0.1 µM) was 0.94, the relative viability ([6]; first compound 0.3162 µM) was 0.851 and the relative viability ([6]; first compound 1 µM) was 0.697. The relative viability ([7]; first compound 0.01 µM) was 0.409, the relative viability ([7]; first compound 0.03162 µM) was 0.588 and the relative viability ([7]; first compound 0.1 µM) was 0.543. It also gave a relative viability ([7]; first compound 0.3162 µM) of 0.546, a relative viability ([7]; first compound 1 µM) of 0.46 and a relative viability ([8]; first compound 0.01 µM) of 0.458. It also gave a relative viability ([8]; first compound 0.03162 µM) of 0.512, a relative viability ([8]; first compound 0.1 µM) of 0.533 and a relative viability ([8]; first compound 0.3162 µM) of 0.496. The relative viability ([8]; first compound 1 µM) was 0.198, the relative viability ([9]; first compound 0.01 µM) was 0.84 and the relative viability ([9]; first compound 0.03162 µM) was 0.751. It also gave a relative viability ([9]; first compound 0.1 µM) of 0.668, a relative viability ([9]; first compound 0.3162 µM) of 0.734 and a relative viability ([9]; first compound 1 µM) of 0.771. The relative viability ([10]; first compound 0.01 µM) was 0.623, the relative viability ([10]; first compound 0.03162 µM) was 0.881 and the relative viability ([10]; first compound 0.1 µM) was 0.894. It also gave a relative viability ([10]; first compound 0.3162 µM) of 1.04, a relative viability ([10]; first compound 1 µM) of 0.904 and a relative viability ([11]; first compound 0.01 µM) of 0.662. The relative viability ([11]; first compound 0.03162 µM) was 0.708, the relative viability ([11]; first compound 0.1 µM) was 0.462 and the relative viability ([11]; first compound 0.3162 µM) was 0.695. For the same compound, the relative viability ([11]; first compound 1 µM) was 0.757, the relative viability ([12]; first compound 0.01 µM) was 0.555 and the relative viability ([12]; first compound 0.03162 µM) was 0.68. It also gave a relative viability ([12]; first compound 0.3162 µM) of 0.795, a relative viability ([12]; first compound 1 µM) of 0.537 and a relative viability ([13]; first compound 0.01 µM) of 0.961. For the same compound, the relative viability ([13]; first compound 0.03162 µM) was 0.95, the relative viability ([13]; first compound 0.1 µM) was 0.982 and the relative viability ([13]; first compound 0.3162 µM) was 0.959. The relative viability ([13]; first compound 1 µM) was 0.915, the relative viability ([14]; first compound 0.03162 µM) was 0.719 and the relative viability ([14]; first compound 0.1 µM) was 0.565. It also gave a relative viability ([14]; first compound 0.3162 µM) of 1.05, a relative viability ([14]; first compound 1 µM) of 0.635 and a relative viability ([15]; first compound 0.01 µM) of 0.933. It also gave a relative viability ([15]; first compound 0.03162 µM) of 1.02, a relative viability ([15]; first compound 0.1 µM) of 1.04 and a relative viability ([15]; first compound 0.3162 µM) of 0.895. The relative viability ([15]; first compound 1 µM) was 1.02, the relative viability ([16]; first compound 0.01 µM) was 0.731 and the relative viability ([16]; first compound 0.03162 µM) was 0.704. The relative viability ([16]; first compound 0.1 µM) was 1.09, the relative viability ([16]; first compound 0.3162 µM) was 0.829 and the relative viability ([16]; first compound 1 µM) was 0.724. It also gave a relative viability ([17]; first compound 0.01 µM) of 1.12, a relative viability ([17]; first compound 0.03162 µM) of 1.31 and a relative viability ([17]; first compound 0.1 µM) of 0.626. The relative viability ([17]; first compound 0.3162 µM) was 1.04, the relative viability ([17]; first compound 1 µM) was 1.19 and the relative viability ([18]; first compound 0.01 µM) was 0.537. For the same compound, the relative viability ([18]; first compound 0.03162 µM) was 0.412, the relative viability ([18]; first compound 0.3162 µM) was 0.496 and the relative viability ([18]; first compound 1 µM) was 0.402. The relative viability ([19]; first compound 0.01 µM) was 0.986, the relative viability ([19]; first compound 0.03162 µM) was 0.932 and the relative viability ([19]; first compound 0.1 µM) was 0.864. The relative viability ([19]; first compound 0.3162 µM) was 0.873, the relative viability ([19]; first compound 1 µM) was 0.666 and the relative viability ([20]; first compound 0.01 µM) was 0.622. It also gave a relative viability ([20]; first compound 0.03162 µM) of 0.547, a relative viability ([20]; first compound 0.1 µM) of 0.534 and a relative viability ([20]; first compound 0.3162 µM) of 0.595. The relative viability ([20]; first compound 1 µM) was 0.635, the relative viability ([21]; first compound 0.01 µM) was 0.752 and the relative viability ([21]; first compound 0.03162 µM) was 0.716. The relative viability ([21]; first compound 0.1 µM) was 0.686, the relative viability ([21]; first compound 0.3162 µM) was 0.657 and the relative viability ([21]; first compound 1 µM) was 0.698. It also gave a relative viability ([22]; first compound 0.01 µM) of 0.733, a relative viability ([22]; first compound 0.03162 µM) of 0.76 and a relative viability ([22]; first compound 0.1 µM) of 0.786. For the same compound, the relative viability ([22]; first compound 0.3162 µM) was 0.55 and the relative viability ([22]; first compound 1 µM) was 0.677.
